Experimental data: the NIST ThermoML archive (doi:10.1016/j.jct.2015.12.025)

Test: refractive index (Na D-line) (dimensionless); xn = mol fraction of the nth substance listed
Details: 102 kPa, Liquid, Standard Abbe refractometry

CC(C)(C)c1ccccc1 [(1,1-dimethylethyl)benzene] + C[Si]1(CCC(F)(F)F)O[Si](C)(CCC(F)(F)F)O[Si](C)(CCC(F)(F)F)O1
refractive index
Details	308.15 K	313.15 K	318.15 K	323.15 K
x2 = 0	1.48509	1.48256	1.48007	1.47754
x2 = 0.0476	1.47051	1.46805	1.4656	1.46312
x2 = 0.1	1.45684	1.45441	1.452	1.4496
x2 = 0.15	1.44555	1.44313	1.44079	1.4384
x2 = 0.2	1.4356	1.43327	1.43091	1.42856
x2 = 0.25	1.42681	1.4245	1.42218	1.41985
x2 = 0.2999	1.41901	1.41671	1.41444	1.41212
x2 = 0.3499	1.41199	1.40972	1.40747	1.40521
x2 = 0.3999	1.40568	1.40344	1.4012	1.39899
x2 = 0.45	1.39992	1.3977	1.39552	1.3933
x2 = 0.5	1.39466	1.39251	1.39033	1.38813
x2 = 0.5498	1.38992	1.38774	1.38566	1.3834
x2 = 0.6	1.38555	1.38337	1.38127	1.37906
x2 = 0.6499	1.38151	1.37934	1.37726	1.37512
x2 = 0.7001	1.37773	1.37562	1.37352	1.37141
x2 = 0.75	1.37427	1.3722	1.3701	1.36801
x2 = 0.7995	1.37106	1.36902	1.36693	1.36485
x2 = 0.8499	1.36804	1.36599	1.36394	1.36193
x2 = 0.8954	1.36548	1.36342	1.36142	1.35939
x2 = 0.9485	1.36268	1.36065	1.35863	1.35667
